Tests used:
[1] = Oxidoreductase activity, fluorescent assay with FITC labelled peptides; type: biochemical; details: reduction of self-quenched FITC labelled peptides, fluorescence
Description: The peptides of the invention comprise an MHC class II T-cell epitope or NKT cell epitope of MOG with a potential to trigger an immune reaction, and a modified oxidoreductase motif. The reducing activity of the motif sequence in the peptide can be assayed for its ability to reduce a sulfhydryl group such as in the insulin solubility assay wherein the solubility of insulin is altered upon reduction, or with a fluorescence-labelled substrate such as insulin. An example of such assay uses a fluorescent peptide and is described in Tomazzolli et al. (2006) Anal. Biochem. 350, 105-112. Two peptides with a FITC label become self-quenching when they covalently attached to each other via a disulfide bridge. Upon reduction by a peptide in accordance with the present invention, the reduced individual peptides become fluorescent again.
The oxidoreductase activity of the immunogenic peptides is determined using a fluorescent assay described in Tomazzolli et al. (2006) Anal. Biochem. 350, 105-112. Two peptides with a FITC label become self-quenching when they form a covalent disulfide bond. Upon reduction by a peptide in accordance with the present invention, the reduced individual FITC labelled peptides emit fluorescence again. The activity is expressed as the mean of duplicates. The results are expressed in Relative Fluorescent Units (RFU). […]

[2] = system: CD4+ T cells of patients with multiple sclerosis; assay: Generation of antigen specific CD4+ T cells, CD154 (CD40L) expression by flow cytometry; type: cell-based, human; details: for specific induction of effector cells (CD3+CD4+CD154+): overnight co-culture
Method: PBMCs were isolated from blood samples of patients with multiple sclerosis treated by dimethyl fumarate (DMF) on Lymphoprep density gradients.
(§1) CD14+ monocytes were isolated from these PBMCs by performing positive immunomagnetic separation with CD14 microbeads (Miltenyi Biotec, 130-050-201) according to the supplier recommendations. CD14+ monocytes were cultured for six days and maturated to generate autologous dendritic cells (mDC). CD19+ B cells were isolated from the CD14- PBMCs fraction by performing positive immunomagnetic separation with CD19 microbeads (Miltenyi Biotec, 130-050-301) according to the supplier recommendations. CD19+ B cells were cultured and immortalized with EBV to generate autologous lymphoblastoid cell lines (LCL).
(§2) Naïve CD4+ T cells were also purified from the CD14- PBMCs fraction by performing negative immunomagnetic separation with naïve CD4+ T cell isolation kit (Miltenyi Biotec, 130-094-131) according to the supplier recommendations. Naïve CD4+ T cells were co-cultured with autologous mDC or LCL in the presence of P2 and P4 peptides. The CD4+ T cells were re-stimulated periodically, about every 10-12 days.
(§3) The ability of the peptides to generate antigen specific CD4+ T cells was evaluated by flow cytometry analysis of the TCR induced surface activation marker CD154 (CD40L) expression after overnight co-culture at resting state with autologous LCL without (no peptide) or with the peptides (P2 or P4). The surface expression of the lytic marker Fas ligand (CD178) was also evaluated by flow cytometry analysis after overnight co-culture at resting state with autologous LCL without (no peptide) or with the peptide (P4).

[3] = system: Experimental Auto-Immune Encephalomyelitis (EAE); assay: Therapeutic administration in MOG35-55-induced EAE; type: in vivo; details: 30 μg s.c. with alum, days 4, 9, 14, 19, vs Saline group
Method: The study used a total of 48 female C57BL/6 mice (Taconic Biosciences, 9 weeks old on Day 0). Mice were acclimated for 7 days prior to the first injection. Mice were assigned to groups in a balanced manner to achieve similar average weight across the groups at the start of the study.
Dosing of all mice was performed once on each of the days indicated in Table 2, s.c., at a volume of 0.05 mL/site, each mouse receiving injection at two sites, for a total of 0.1 mL/mouse/dosing day. IMCY-0189 or P4 peptide total dose was 30 μg per administration.
Lyophilized immunogenic peptide IMCY-0189 with the sequence […] (SEQ ID NO: 260), comprising an oxidoreductase motif HCPYC (SEQ ID NO: 24), a linker GW, a murine Myelin Oligodendrocyte Glycoprotein (MOG35-55) MHCII T cell epitope […] (SEQ ID NO: 261) and a flanking sequence HLYR (SEQ ID NO: 262) (Smart Bioscience) was solubilized immediately before use. Lyophilized IMCY-0189 was thawed at room temperature for 10 minutes, resuspended in Na Acetate buffer 50 mM NaCl 0.9% pH 5.4 and incubated at room temperature for 10 minutes. Reconstituted peptide was then mixed with Imject™ Alum Adjuvant before injection.
Lyophilized immunogenic peptide P4 with the sequence […] (SEQ ID NO: 27), comprising an oxidoreductase motif KHCPYC (SEQ ID NO: 50), a linker VRY, a human Myelin Oligodendrocyte Glycoprotein (MOG201-212) MHCII T cell epitope […] (SEQ ID NO: 2) and a flanking sequence TLFKK (SEQ ID NO: 263) (Smart Bioscience) was solubilized immediately before use. Lyophilized P4 was thawed at room temperature for 10 minutes, resuspended in Na Acetate buffer 50 mM NaCl 0.9% pH 5.4 and incubated at room temperature for 10 minutes. Reconstituted peptide was then mixed with Imject™ Alum Adjuvant before injection.
EAE was induced in all mice as follows: • Day 0, Hour 0—Immunization with a peptide corresponding to the amino acids 35-55 of MOG (MOG35-55)/CFA • Day 0, Hour 2—Injection of pertussis toxin • Day 1, Hour 0—2nd injection of pertussis toxin (24 hours after initial immunization).
Mice were injected subcutaneously at two sites in the back with the emulsion component (containing MOG35-55) of Hooke Kit™ MOG35-55/CFA Emulsion PTX, catalog number EK-2110 (lot #131, Hooke Laboratories, Lawrence MA). One site of injection was in the area of upper back, approximately 1 cm caudal of the neck line. The second site was in the area of lower back, approximately 2 cm cranial of the base of the tail. The injection volume was 0.1 mL at each site. Each mouse received 200 μg of MOG35-55.
Within 2 hours of the injection of emulsion, and then again 24 hours after the injection of emulsion, the pertussis toxin component of the kit was administered intraperitoneally. The pertussis toxin (lot #1008, Hooke Laboratories) was administered at 90 ng/dose for both injections and the volume of each injection was 0.1 mL.
Animals were scored daily starting from Day 7 to the end of the study. Scoring was performed blind, by a person unaware of both treatment and of previous scores for each mouse. In-between scores were assigned when the clinical signs fell between two above defined scores.
On Day 28, blood was collected from all mice into gel clot activator tubes and allowed to clot at room temperature for ˜30 minutes. Blood is then centrifuged at ˜10000 g for 5 minutes. Serum was transferred into Eppendorf tubes and stored at −80° C. until shipment to Quanterix™. Serum Neurofilament light (NF-L) protein levels were quantified using Simoa® NF-light Advantage kit, a digital immunoassay for the quantitative determination of NF-L in serum, plasma and CSF. The used antibodies (Uman Diagnostics, Umea Sweden) also cross react with murine, bovine and macaque NF-L epitopes and as such, this assay can be used for research with these species. All samples were tested in duplicate at a dilution factor of 40×. […]

[4] = system: CD4+ T cells of patients with multiple sclerosis; assay: Surface expression of lytic marker Fas ligand (CD178) by flow cytometry; type: cell-based, human; details: CD4+ cell lines of patients MS017 (S9) and MS020 (S10)
Method: as §2, §3

autologous LCL = assay: Cytolytic activity: apoptosis of autologous LCL (Annexin V); type: cell-based, human; details: peptide-loaded labelled autologous LCL co-cultured with P4-specific CD4+ T cell lines from patients MS017 (S7), MS026 (S12), MS028 (S11) and MS029 (S9)
Method: as §1
The cytolytic activity of the antigen specific CD4+ T cells was evaluated by quantifying the apoptosis induced on LCL used as antigen presenting cells. Fluorescently labelled autologous LCL, loaded or not with the peptide (P4), were overnight co-cultured at resting state with specific CD4+ T cells, and LCL apoptosis was quantified by flow cytometry through Annexin V staining. Considering the apoptosis percentage of unloaded LCL, used as control, the percentage of specific apoptosis was calculated as follows

[5] = system: CD4+ T cells of patients with multiple sclerosis; assay: Cytokine secretion in CD4+ T cell culture supernatants (LEGENDplex Human Th Panel); type: cell-based
Description: as §2
The ability of the peptides to induce cytokines secretion in CD4+ T cells culture supernatants was evaluated by flow cytometry analysis after overnight co-culture at resting state with autologous mDC without (no peptide) or with the peptides (P2 or P4). Supernatants were analyzed with the LEGENDplex Human Th Panel (13-plex) (BioLegend, 740721) according to the supplier recommendations.

[6] = molecular target: T1, soluble HLA-DRB1*04:01 human MHC II protein (human); assay: soluble-phase competition vs biotin-tagged control peptide, Eu3+-streptavidin fluorescence (FIG. 3)
T1 construct: Soluble protein purchased from the Benaroya Research Institute; also called HLA-DR4; DR4
Method: (§4) To test the binding of the immunogenic peptides to MHCII molecules, a soluble phase competition assay is performed. […] As binding approaches its equilibrium (18h), biotin-labelled peptide/MHC II complexes are captured, separated from unbound reagents, and quantitatively detected by time-resolved fluorescence (Eu³⁺ streptavidin, Perkin Elmer, Brussels, Belgium). […] Data are processed and plotted to ascertain dose-dependent binding properties of test peptides. All the tests are performed in triplicates.

[7] = molecular target: T2, soluble HLA-DRB1*03:01 human MHC II protein (human); assay: soluble-phase competition vs biotin-labelled control peptide, Eu3+-streptavidin time-resolved fluorescence
T2 construct: Soluble protein purchased from the Benaroya Research Institute; also called HLA-DR3; DR3

[8] = molecular target: T2, soluble HLA-DRB1*03:01 human MHC II …; assay: soluble-phase competition vs biotin-tagged control peptide, Eu3+-streptavidin fluorescence (FIG. 2)
Method: as §4

[9] = P4-specific CD4+ cell lines of patients MS024 (S20), MS017 (S9), MS026 (S13), MS028 (S11) and MS029 (S9)
[10] = culture supernatant of MS017 (S12) and MS024 (S20) CD4+ cell lines, P4 vs S-WT epitope peptide

HCPYCGG-FLRVPCWKI [P7]
oxidoreductase activity [1]: displayed oxidoreductase activity

KHCPYCVRYFLRVPSWKITLFKK [P4]
specific induction of effector cells (CD3+CD4+CD154+) ([2]; P4-specific CD4+ cell lines of patients MS017 (S14) and MS026 (S13)): specific induction | specific induction of effector cells (CD3+CD4+CD154+) [2, 9]: specific induction | generation of peptide-specific CD4+ T cell lines from MS patients ([2]; naive CD4+ T cells co-cultured with autologous mDC or LCL in presence of peptide): able to generate P4-specific CD4+ T cell lines from eight different MS patients | frequency of effector cells (CD3+CD4+CD154+) ([2]; patients' CD4+ cell lines, overnight co-culture with autologous LCL with peptide vs no peptide): high frequency | AUC (area under the curve) of EAE scores [3]: statistically significant reduced | MMS (mean maximal score) [3]: statistically significant reduced | disease onset [3]: postponed | level of demyelination (anti-MBP stained spinal cord sections) [3]: reduced level | level of inflammation (inflammatory foci, H&E stained spinal cord sections) [3]: reduced level | serum NF-L levels ([3]; Day 28): statistically significant reduced | end score ([3]; EAE score 0-5): reduced | effector cells expressing the lytic marker Fas ligand (CD3+CD4+CD154+FasL+) [4]: specific increase | percentage of specific LCL apoptosis (autologous LCL): increase | specific secretion of cytokine (IL-5) [5, 10]: specific secretion | specific secretion of cytokine (IL-5) ([5]; culture supernatant of MS017 (S15) CD4+ cell line, P4 vs C-WT epitope peptides): specific secretion | specific secretion of cytokine (IL-5) ([5]; culture supernatant of MS017 (S15), MS024 (S20) and MS026 (S14) CD4+ cell lines): specific secretion

KLHRTFDPHFLRVPSWKITLFK [short S-WT, reference compound]
specific induction of effector cells (CD3+CD4+CD154+) [2, 9]: specific induction | percentage of specific LCL apoptosis (autologous LCL): increase | specific secretion of cytokine (IL-5) [5, 10]: specific secretion

HCHGCVRYFLRVPCWKI [P6]
oxidoreductase activity [1]: displayed oxidoreductase activity

HCPYCVRYFLRVPSWKITLF (Synthetic) [P2 peptide HCPYCVRYFLRVPSWKITLF]
binding result [6]: binds | binding result [7]: binds

HCPYCVRYFLRVPCWKITLF (Synthetic) [P3 peptide HCPYCVRYFLRVPCWKITLF]
binding result [6]: binds | binding result [8]: binds

— US20230340061A1, “PEPTIDES AND METHODS FOR THE TREATMENT OF MULTIPLE SCLEROSIS” (IMCYSE SA, priority 2020, published 2023)
